Results taken from USRE40050E1, “Method for cleaning and/or disinfecting food processing equipment” (priority 1999, dated 2008).

Key:
[1] = system: Rhizopus stolonifer; assay: Suspension test, percent microbes killed by CIP composition; assay type: cell-based; details: suspension 7.5 log bacteria/mL, 50 ppm CaCO3
Description: (§1) American Type Culture Collection cultures were transferred daily and maintained on agar slants containing the appropriate growth medium^1. A loopful of the culture was transferred into 10 ml of Butterfield's phosphate buffer pH 7.2 (NutraMax Products, Inc.) and agitated to obtain a homogeneous turbid suspension. The actual concentration of microbes in suspension was estimated by its serial dilution in Butterfield's phosphate buffer and subsequent transfer of 0.1 ml of the dilution series into a Petri plate containing the appropriate agar growth medium. The inoculated Petri plates were incubated for 48-72 hours (at about 37° C.) and the resulting colonies counted with a Quebec colony counter. The number of colonies on the Petri plates multiplied by the serial dilution factor is equal to the number of microbes in 0.1 ml of inoculum.
(§2) Suspension test: 1 ml of each microbial suspension was mixed with 9 ml of each CIP composition containing 50 ppm CaCO3 at 10/9 of the recommended use concentration (RUC) so that final concentration was exact RUC. After contact times described above, 1 ml of the mixture was put to 9 ml of neutralizer^2 from which 0.1 ml of sample was plated onto the appropriate agar and incubated at 28° C. for 48-72 hours before counting. The number of colonies present on the Petri plates multiplied by the serial dilution factor is equal to the number of microbes in 0.1 ml that survived in the sanitizer solution.
(§3) The per cent microbes killed by CIP composition is calculated by using the following equation: […]
(§4) One (1) mL of suspension and 9.0 mL of CIP composition were combined, resulting in the above data. The pH of the chlorine dioxide CIP composition was 5.8, the mixed halogen is sold by DiverseyLever under the name of Divosan MH and the peroxyacetic acid was an aqueous solution having about 65% water.

[2] = system: Lactobacillus brevis; assay: as above; assay type: cell-based; details: suspension 8.2 log bacteria/mL, 50 ppm CaCO3
Description: as §1, §2, §3, §4

[3] = system: Candida Albicans; assay: as above; assay type: cell-based; details: suspension 8.0 log bacteria/mL, 50 ppm CaCO3
Description: as §1, §2, §3, §4

[4] = system: Byssochlamys nivea; assay: as above; assay type: cell-based; details: suspension 8.1 log bacteria/mL, 50 ppm CaCO3
Description: as §1, §2, §3, §4

[5] = system: Bacillus cerus; assay: as above; assay type: cell-based; details: suspension 8.5 log bacteria/mL, 50 ppm CaCO3
Description: as §1, §2, §3, §4

[6] = system: Zygosaccharomyces bailii; assay: as above; assay type: cell-based; details: suspension 8.5 log bacteria/mL, 50 ppm CaCO3
Description: as §1, §2, §3, §4

[7] = root beer, buffered pH about 11, integrated absorbance 440 to 700 nm vs control without CIP composition; ppm of active as per example
Description: For each of the five (5) experiments below, two quartz UV cells having a path length of 5.0 cm were each charged with 5.95 mL of a 0.1 molar sodium phosphate solution (to establish a buffered pH of about 11). The first cell was further charged with 0.6 mL of neat (conventional) root beer, as made commercially available. The second cell was further charged with 0.6 mL deionized water. Using the contents of the second cell as the blank, the absorbance of the resulting root beer solution was determined over the range of 440 to 700 nm, using a Hewlett-Packard 8452 UV/vis spectrophotometer. The absorbance over this wavelength range was integrated, and the percent (%) reduction in color of root beer was based on a comparison to the integrated absorbance of the control to which no CIP composition has been added.

SMILES	percent bacteria killed, Rhizopus stolonifer ([1]; contact 30 seconds)	percent bacteria killed, Rhizopus stolonifer ([1]; contact 2 minutes) [%]	percent bacteria killed, Lactobacillus brevis ([2]; contact 30 seconds) [%]	percent bacteria killed, Lactobacillus brevis ([2]; contact 2 minutes) [%]	percent bacteria killed, Candida Albicans ([3]; contact 30 seconds)	percent bacteria killed, Candida Albicans ([3]; contact 2 minutes)	percent bacteria killed, Byssochlamys nivea ([4]; contact 30 seconds)	percent bacteria killed, Byssochlamys nivea ([4]; contact 2 minutes)	percent bacteria killed, Bacillus cerus ([5]; contact 30 seconds) [%]	percent bacteria killed, Bacillus cerus ([5]; contact 2 minutes) [%]	percent bacteria killed, Zygosaccharomyces bailii ([6]; contact 30 seconds)	percent bacteria killed, Zygosaccharomyces bailii ([6]; contact 2 minutes) [%]	% Reduction of Color [7] [%]
CC(=O)OO [Example 9, Peroxyacetic acid]	<99%	<99	~99.9999	~99.9999	About 99.99%	About 99.9999%	About 99.9%	About 99.99%	~99.99	~99.9999	About 99.99%	~99.9999	
[Na+].[O-]Cl [Example 4, sodium hypochlorite]													36.49
[O][Cl+][O-] [Example 3, chlorine dioxide]													56.09
CC(=O)OO [Example 6, peroxyacetic acid]													25.76
[O][Cl+][O-] [Example 7, chlorine dioxide]	About 99.99%	~99.9999		~99.9999		About 99.9999%	About 99.99%	~99.9999%		~99.9999		~99.9999	
